Laboratory results reported in US20100239556A1, “PROMOTING ECM PRODUCTION BY FIBROBLAST CELLS AND/OR PROMOTING MIGRATION OF FIBROBLAST CELLS IN A BIOLOGICAL SYSTEM” (TGR BioScience Pty Ltd., priority 2006, published 2010).

Tests used:
HFF cells [1] = assay: Soluble collagen I secreted by fibroblast-populated INTEGRA (ELISA); type: cell-based, human; conditions: SBP 12.5 μg/ml for 24 hours, ELISA after 72 hours
Experimental: Additional experiments were performed to determine if fibroblast cells populating a three-dimensional framework or scaffold could be stimulated to secrete soluble collagen I into the media bathing the three-dimensional framework or scaffold. For these experiments, HFF cells were seeded onto the INTEGRA® and allowed to populate the scaffold for two weeks under normal culture conditions (10% FCS supplementation). The populated scaffold was then stimulated with a protein having peroxidase activity by immersing it in basal media (DMEM) containing SBP (12.5 μg/ml) for 24 hours. The INTEGRA® was then placed into fresh DMEM and the collagen-I content of the media measured by ELISA after 72 hours.

HFF cells [2] = assay: ECM production within INTEGRA scaffold (collagen I immunohistochemistry); type: cell-based, human; conditions: SBP 25 μg/ml pre-, pre+post- or post-treatment
From the text: INTEGRA® was cut into lcm x lcm pieces using a sterile scalpel, the pieces transferred to a petri dish using sterile forceps and washed four times each with PBS followed by serum-free DMEM, to remove the alcohol storage medium and to equilibrate the porous scaffold for exposure to cells. After the last wash, the INTEGRA® pieces were transferred to the wells of a 12 well tissue culture plate (collagen layer facing up) immersed in media containing proteins having peroxidase activity. This “pre-treatment” of the INTEGRA® with proteins having peroxidase activity was performed for up to 16 hours at 37° C. in a CO2 incubator. After the “pre-incubation” period, the media was replaced with fresh DMEM supplemented with 10% FBS (ie normal growth media as the control) containing 5×10^5 human fibroblast cells plus or minus proteins having peroxidase activity. After allowing 24 hours for the fibroblast cells to attach to the collagen matrix of the INTEGRA® scaffold, the INTEGRA® pieces were transferred to fresh 12 well plates to ensure any cells not attached to the matrix surface were removed. Fresh media containing proteins with peroxidase activity were added to the wells and the INTEGRA® pieces incubated for up to 14 days (“post-treatment” period) with the media changed every 7 days as necessary. At the end of the experiment the INTEGRA® pieces were harvested and fixed in 10% buffered formaldehyde before they were processed, embedded in paraffin wax, cut in cross-section and placed onto microscope slides for histological and immunohistochemical analysis.
To confirm proteins having peroxidase activity promote the generation of a three-dimensional human tissue by stimulating the production of collagen and other ECM components to fill the interstices of a three-dimensional framework or scaffold, INTEGRA® pieces collected from the experiments described in Example 3 were analysed for the production of Collagen I (as a representative ECM protein) using immunohistochemistry. […]

[3] = Elution of peroxidase activity from INTEGRA (Sigmafast OPD detection)
Experimental: These experiments were performed by pre-incubating 1 cm×1 cm pieces of INTEGRA® with SBP (25 μg/ml) as described in Example 3 for either 30 minutes or 16 hours, control pieces were pre-incubated in DMEM only. After this time, the pieces of INTEGRA® were washed in fresh media to remove excess SBP solution, and placed into the wells of a 12-well culture plate pre-seeded with HFF cells (2×10^5cells/well) that were grown to confluency over three days. The media from these wells was collected after 24 and 48 hours with peroxidase activity measured (to determine the rate of elution of the proteins with peroxidase activity from the Integra) and the collagen content measured by ELISA (to ensure the eluted proteins with peroxidase activity retained the capacity to stimulate collagen production by the HFF cells). The peroxidase activity was assessed using the Sigmafast™ O-phenylenediamine dihydrochloride (OPD) detection method as per the manufacturers instructions. Briefly, 5 μl of sample was combined with 100 μl of reagent and relative peroxidase activity determined after 5-10 minutes incubation by measuring absorbance at 450 nm using a Wallac Victor Multilabel HTS counter.

HFF cells [4] = assay: Collagen I in PuraMatrix Peptide Hydrogel (western blot); type: cell-based, human; conditions: one week
Experimental: Additional experiments were also performed to ensure the effects observed using the INTEGRA® as a three-dimensional framework or scaffold were not limited to a bovine collagen/glycosaminoglycan structure and could be achieved in synthetically derived matrices. For these experiments a PuraMatrix™ Peptide Hydrogel was used. The PuraMatrix Peptide Hydrogel is a synthetic matrix that self assembles into a three-dimensional hydrogel (1% w/v amino acids: 99% water) under physiological conditions with a nanometer scale fibrous structure and an average pore size of 50-200 nm. For these experiments, HFF cells were suspended in a 20% sucrose solution, with or without proteins having peroxidase activity, and added 1:1 to neat (1%) PuraMatrix hydrogel and carefully pipette mixed, so as not to create bubbles. Each cell/gel mix was plated in 24 well plates and allowed to partially set at room temperature for 5 min. Next, DMEM supplemented with either 10, 5 or 2% FCS was very slowly overlayed in a dropwise fashion down the edge of the well so as not to disrupt the gel. Plates were placed in a 37° C. incubator for the mix to completely solidify, and the media was changed twice over 1 hr to equilibrate the gel to pH 7.4. The encapsulated hydrogel was incubated for one week, the bathing culture media removed and RIPA buffer added to the gel for total protein extraction. […]

Substance: soy bean peroxidase [SBP]
- increase in collagen I secreted into the media bathing the scaffold (HFF cells [1]): 2-3 fold
- production and deposition of cell-associated ECM in the scaffold (HFF cells [2]): as effective at promoting the production and depositon of cell-associated ECM throughout the full thickness of the scaffold
- peroxidase activity eluted, pre-incubated 16 hours compared to 30 minutes [3]: approximately one third more
- peroxidase activity in the medium collected after 24 and 48 hours ([3]; 24 versus 48 hours elution): identical
- collagen I produced in the Hydrogel matrix (HFF cells [4]; SBP 25 μg/ml in 10% FCS versus 10% FCS alone): produced more collagen I
- collagen I produced in the Hydrogel matrix (HFF cells [4]; SBP in 2 or 5% FCS): relatively more collagen I was produced
